Measured values from patent publication US20060018846A1, “Animo substituted hydroxyphenyl benzophenone derivatives” (priority 2002, published 2006).

What was measured:
[1] = UV spectrum (absorption maximum and molar extinction); assay type: physicochemical
Source text: UV Spectrum (in Dioxan) • Maximum at 359 nm; e=34724
UV Spectrum (in Dioxan): • Maximum at 360 nm; e=37900
UV Spectrum (in Dioxan): • Maximum at 359 nm; e=35080
UV-Spectrum in Dioxan: Max. 351 nm, mol Ext. 65551
UV Spectrum in Ethanol: Max. 354 nm, mol. Ext. 65296

[2] = Solubility in Finsolve TN (C 12-15 alkylbenzoate); assay type: physicochemical
Source text: It has a good solubility for example in Finsolve TN (C 12-15 alkylbenzoate)>10%.
The obtained compound is an amorphous, yellow powder Solubility in Finsolve TN>30%

| UV spectrum: 2. Maximum (wavelength) ([1]; in Dioxan) [nm] | UV spectrum: Maximum (wavelength; 1. Maximum where two are given) ([1]; in Dioxan) [nm] | UV spectrum: e / mol Ext. at the maximum (1. Maximum where two are given) ([1]; in Dioxan) | UV spectrum: e at 2. Maximum ([1]; in Dioxan) | Solubility in Finsolve TN (C 12-15 alkylbenzoate) [2] [%] | UV spectrum: Max. (wavelength) ([1]; in Ethanol) [nm] | UV spectrum: mol. Ext. ([1]; in Ethanol) | SMILES |
| --- | --- | --- | --- | --- | --- | --- | --- |
| 360 | 336 | 57318 | 49032 |  |  |  | CCN(CC)c1ccc(C(=O)c2ccccc2C(=O)Nc2ccc(-c3nc4ccc(C)cc4s3)cc2)c(O)c1 [Example 2] |
|  | 358 | 34848 |  |  |  |  | CCN(CC)c1ccc(C(=O)c2ccccc2C(=O)Nc2ccc(C(N)=O)cc2)c(O)c1 [Example 4] |
|  | 351 | 38565 |  |  |  |  | CCN(CC)c1ccc(C(=O)c2ccccc2C(=O)OC2CC(C)CCC2C(C)C)c(O)c1 (centres unmarked) [Example 6] |
|  | 359 | 34724 |  |  |  |  | CCN(CC)c1ccc(C(=O)c2ccccc2C(=O)Nc2ccccc2)c(O)c1 [Example 8] |
|  | 360 | 37900 |  |  |  |  | CCN(CC)c1ccc(C(=O)c2ccccc2C(=O)N2CCOCC2)c(O)c1 [Example 9] |
|  | 359 | 35080 |  |  |  |  | CCN(CC)c1ccc(C(=O)c2ccccc2C(=O)N(CCO)CCO)c(O)c1 [Example 10] |
|  | 351 | 65551 |  | > 10 |  |  | CCN(CC)c1ccc(C(=O)c2ccccc2C(=O)OC/C=C/COC(=O)c2ccccc2C(=O)c2ccc(N(CC)CC)cc2O)c(O)c1 [Example 11] |
|  |  |  |  | > 30 | 354 | 65296 | CCN(CC)c1ccc(C(=O)c2ccccc2C(=O)OCC(C)(C)COC(=O)c2ccccc2C(=O)c2ccc(N(CC)CC)cc2O)c(O)c1 [Example 12] |
